Consider 1 compound from patent US20230242616A1, “CHEMOKINE-SELECTIVE CXCR4 ECTODOMAIN-DERIVED (POLY)PEPTIDE” (Ludwig-Maximilians-Universität München, priority 2020, published 2023).

One assay addresses mouse MIF (Mus musculus, UniProt P34884). The assay can be described thus: Dot blot with TAMRA-msR4M-L1, human versus mouse MIF. The class given is binding. As for the experimental part:
Dot blot. […] Non-specific binding was blocked with Tris-buffered saline (TBS), pH 7.4, containing 0.1% Tween-20 (TBS-T) and 1% BSA. […] Fluorescence intensities were measured at 600 nm using an Odyssey® Fc imager (LICOR Biosciences, Bad Homburg, Germany). The total intensity of each spot was automatically corrected by the individual background signal.

Assay [1] addresses T1, human CXCR4 (CXCL12/CXCR4) (Homo sapiens, UniProt P48061).
T1 construct: expressed in transfected cells; host or cells: S. cerevisiae strain CY12946
The assay can be described thus: CXCR4-specific signaling in yeast (lacZ reporter), CXCL12-triggered. Format: cell-based. Particulars: 2 μM CXCL12.
Procedure: CXCR4-specific signaling in a yeast-based cell system. […] Briefly, yeast transformants stably expressing human CXCR4 were grown overnight at 30° C. in yeast nitrogen base selective medium (Formedium, UK). Cells were diluted to an OD600 of 0.2 and grown to an OD600 of 0.3-0.6. […] OD600 was measured and activation of CXCR4 signaling quantified by β-galactosidase activity using a commercial BetaGlo Kit (Promega, Mannheim, Germany).

In assay [2] the test system is primary human monocyte-derived macrophages. The assay can be described thus: Dil-LDL uptake / foam cell formation, MIF-mediated. The class given is cell-based. As for the experimental part:
Dil-LDL uptake/foam cell formation. […] After washing with imaging solution (MEM without phenol red containing 30 mM HEPES, 0.5 g/L NaHCO3, pH 7.4, and 0.2% BSA), cells were exposed to 50 μg/mL 1,1′-dioctadecyl-3,3,3′3′-tetra-methylindocarbocyanine-labeled LDL (Dil-LDL) for 30 min at 4° C. followed by incubation at 37° C. for 20 min. Cells were washed with ice-cold imaging solution (pH 3.5), fixed, and counter-stained with Hoechst 33258.

For the next assay, the system named is human monocytes. The assay can be described thus: 3D migration of monocytes elicited by MIF (time-lapse microscopy). Format: cell-based. An excerpt:
Isolation of human peripheral blood-derived monocytes. Human peripheral blood-derived monocytes were isolated as described^14. Briefly, blood was collected from healthy donors or buffy coat obtained from the blood bank of Munich University Hospital, mixed 1:1 with PBS, and PBMCs isolated by Ficoll-Paque Plus gradient (GE Healthcare). Monocytes were purified by negative depletion using the Monocyte Isolation Kit II (Miltenyi). Monocyte purity was verified by flow cytometry using an anti-CD14 antibody (Miltenyl) and was 95-98%. […] The isolation of PBMCs from donor blood was approved by the local ethics committee of LMU Munich. 3D migration of human peripheral blood-derived monocytes by time-lapse microscopy. The 3D-migration behavior of human monocytes was assessed by time-lapse microscopy and individual cell tracking using the 3D chemotaxis μ-Slide system from Ibidi GmbH (Munich, Germany), adapting the established Ibidi dendritic cell protocol for human monocytes. […] Cell motility was monitored performing time-lapse imaging every 1 min at 37° C. for 2 h using a Leica inverted DMi8-Life Cell Imaging System equipped with a DMC2900 Digital Microscope Camera with CMOS sensor and live cell-imaging software (Leica Microsystems, Wetzlar, Germany). Images were imported as stacks to ImageJ software and analyzed with the manual tracking and chemotaxis/migration tools (Ibidi GmbH).

A further assay has as its system Apoe−/− mice on HFD. In words: Cytokine array on plasma of treated mice. Format: in vivo, mouse. Particulars: reductions for IFN-γ, IL-1α, IL-16, TNF-α, CXCL13/BLC. The protocol:
Cytokine array. Cytokine/chemokine profiling was performed from plasma samples of msR4M-L1-versus vehicle-treated Apoe^−/− mice using mouse cytokine array panel A (R&D Systems, ARY006) according to the manufacturer's instructions. Plasma samples were diluted (1:10) in array buffer; incubated with antibody detection cocktail for 1 h at RT, exposed to the blocked membranes (overnight, 4° C.), membranes washed and incubated with streptavidin-HRP conjugate working solution (30 min, RT). Membranes were developed with Chemi-Reagent Mix and analyzed by Odyssey® Fc imager. The average signal (pixel density) of duplicate spots was quantified by ImageJ.

Assay [3] relates to Apoe−/− mice with established plaques. In words: Regression model of atherosclerosis. Format: in vivo, mouse. From the text:
Control mice received saline. Mice were sacrificed after 9 weeks and vessel tissues prepared for plaque, cell, and macrophage staining. A. C, E, staining of aortic root sections with oil red O (ORO), hematoxylin eosin (HE), and anti-CD68, respectively. G, staining of aortic arch with HE. B, D, F, H, respective quantifications from 14 mice per group. Statistics: two-tailed, unpaired Mann-Whitney test; *, P<0.05; **, P<0.01.
To further test the therapeutic applicability of msR4M-L1, an in vivo test in a “regression setting” was applied to mimic the patient situation, who is typically seen by a physician only when symptoms occur. The real-life situation is thus one in which preformed plaques already exist, when a patient starts treatment. A regression model therefore better mimics the situation in patient with pre-existing atherosclerotic disease.
In a pilot study, atherogenic ApoE−/− mice were put on Western diet for 4.5 wks.

T1 sequence (P48061 22-89 limits assumed): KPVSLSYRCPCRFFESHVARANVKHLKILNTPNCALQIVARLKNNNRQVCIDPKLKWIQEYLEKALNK

On to `CC[C@H](C)[C@H](NC(=O)[C@H](Cc1ccc(O)cc1)NC(=O)[C@H](CCCNC(=N)N)NC(=O)[C@H](CC(=O)O)NC(=O)CCCCCCCCCCCNC(=O)CCCCCNC(=O)[C@H](CCCCN)NC(=O)[C@H](CS)NC(=O)[C@H](CC(C)C)NC(=O)[C@H](Cc1ccccc1)NC(=O)[C@H](CC(N)=O)NC(=O)CNC(=O)[C@H](Cc1ccccc1)NC(=O)[C@H](Cc1ccc(O)cc1)NC(=O)[C@H](Cc1c[nH]c2ccccc12)NC(=O)[C@H](CC(N)=O)NC(=O)[C@H](C)NC(=O)[C@@H](NC(=O)[C@H](C)NC(=O)[C@@H](N)CC(=O)O)C(C)C)C(=O)N[C@@H](CS)C(=O)N[C@@H](CC(=O)O)C(=O)N[C@@H](CCCNC(=N)N)C(=O)N[C@@H](Cc1ccccc1)C(=O)N[C@@H](Cc1ccc(O)cc1)C(=O)N1CCC[C@H]1C(=O)N[C@@H](CC(N)=O)C(=O)N[C@@H](CC(=O)O)C(=O)N[C@@H](CC(C)C)C(=O)N[C@@H](Cc1c[nH]c2ccccc12)C(=O)N[C@H](C(N)=O)C(C)C` [msR4M-L1], for which the “binding to human versus mouse MIF on dot blot” value at mouse MIF is “binds equally well to human and mouse MIF”. In addition, in assay [1], the “effect on CXCL12/CXCR4-elicited signaling” value was “remained unaffected”. Further, the “effect on MIF-mediated Dil-LDL uptake” value in assay [2] (80 nM MIF) was “dose-dependently inhibited”. In addition, the “inhibitory capacity compared with established MIF inhibitors” value in assay [2] (Dil-LDL uptake) is listed as “slightly better than that of ISO-1, but lower than that or NIH/IIID.9”. In the assay on human monocytes, the “effect on MIF-triggered 3D monocyte migration” value was “dose-dependently attenuated” and the “molar excess that ablates the pro-migratory effect of MIF” value was 2 -fold molar excess. In the assay with Apoe−/− mice on HFD, the “circulating inflammatory cytokine levels” value was “marked reduction”. Moreover, in assay [3] (4-5 mice per group, 50 μg/mouse, 3× per week), the “plaque load, pilot regression study” value is on record as “decreased plaque load (trend)”. In assay [3] (14 mice per group), the “atherosclerotic plaques (ORO and HE aortic root, HE aortic arch), regression study” value is reported as “leads to a regression of atherosclerotic plaques”; the “intralesional inflammation, CD68+ macrophage area” value is “reduced”.
